Series [1] deals with PARK7. Briefly: Morpholino injections in zebrafish embryos, heart phenotype. The class given is in vivo, zebrafish (Danio rerio). The conditions noted are these: 2 dpf zebrafish embryos.
Series [2] concerns UCHL1. Briefly: Morpholino injections in zebrafish embryos, tail phenotype. It is filed as in vivo, zebrafish (Danio rerio). Particulars: 2 dpf zebrafish embryos, 2 ng morpholino.
The target in series [3] is T1, purified recombinant human UCHL1 (Homo sapiens, UniProt P09936).
T1 sequence (P09936 1-223): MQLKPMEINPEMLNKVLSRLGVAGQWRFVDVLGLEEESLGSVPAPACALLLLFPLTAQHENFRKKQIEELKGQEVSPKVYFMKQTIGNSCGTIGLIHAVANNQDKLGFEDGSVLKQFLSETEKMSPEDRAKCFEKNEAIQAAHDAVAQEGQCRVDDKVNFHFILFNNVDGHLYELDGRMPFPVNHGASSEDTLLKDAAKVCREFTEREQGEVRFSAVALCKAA
In words: Probe labeling of purified recombinant UCHL1. It is filed as binding. The conditions noted are these: small-molecule probes: nondenaturing SDS-PAGE (no boiling, no β-mercaptoethanol).

On to “PARK7MO1: morpholino targeting PARK7 exon 2, 5′-TATGTAAAGTCAGACCTGTTTGTG-3′ (all phosphorodiamidate morpholino (PMO))”, for which the “abnormal enlarged heart phenotype” value in series [1] is on record as ~18%. “UCHL1MO1: morpholino targeting UCHL1, 5′-TATTTCCATCGGTTTCCACTCCATG-3′ (all phosphorodiamidate morpholino (PMO))”: the “Tail phenotype % curly tail” value in series [2] is on record as 53%. Turning to “UCHL1MO2: morpholino targeting UCHL1 exon 4, 5′-GTTCCTTAAACATATCCACTTACCA-3′ (all phosphorodiamidate morpholino (PMO))”, the “Tail phenotype % curly tail” value in series [2] was 79%. For the substance “rhodamine-ubiquitin-propargylamide [Rh-Ub-PA]”, in series [3], the “labeling of purified recombinant human UCHL1” value is “nearly all UCHL1 is labeled”.

The record behind these values is article PMC7530896 (Journal of the American Chemical Society, 2020).
